Consider 21 compounds from patent US4404378A, “2-Substituted or unsubstituted aminocarbonyloxyalkyl-1,4-dihydropyridines” (Banyu Pharmaceutical Co., Ltd., priority 1981, dated 1983).

≈ marks a conversion by molar mass, not a printed value. Like-named read-outs stand apart in the source and are kept apart here. Where only a bound is given, the exact number is not on record here.

As usually defined, the LD50 is the dose at which mortality reaches 50%. Low readings indicate a more toxic substance, high ones a less toxic substance.

Data set [1] relates to isolated hearts of rabbits. The data set can be described thus: Coronary vasodilation in isolated rabbit hearts (Langendorff method). Conditions: Oryctolagus cuniculus, isolated rabbit heart, dosage required to increase coronary outflow by 50%, read-out: Coronary vasodilation ICD50. The protocol: (a) Coronary vasodilation According to Langendorff method (O. Langendorff; Pflugers arch. ges. phisiol., 61, 291-332 (1895)), the coronary vasodilation effects were tested using isolated hearts of rabbits.

Data set [2] can be described thus: Acute toxicity, i.v., up-and-down method. The note with it: mouse, in vivo, iv.
Another data set concerns Beagle dogs. The data set can be described thus: Coronary effects on dogs. The data set is classed as in vivo, dog. Here is the method:
(c) Coronary effects on dogs Beagle dogs (13 to 16 kg. .male.) were subjected to thoracotomy under anesthesia with sodium pentobarbital, and a probe was attached to the heart left coronary anterior descending artery of each animal, whereupon the coronary blood flow (CF) was measured by an electromagnetic flowmeter. On the other hand, a probe was attached to the exposed right femoral artery, and the femoral artery blood flow (FAF) was measured by an electromagnetic flowmeter. A canule was inserted to the left femoral artery, and the systemic blood pressure (BP) was bloody measured by a transducer. The heart rate (HR) was measured by an electrocardiogram. The sample solution was intravenously injected to the right femoral vein. The coronary blood flow (CF), the femoral artery blood flow (FAF) and the heart rate (HR) were represented by a % increase upon the injection of each sample as compared with the respective control value upon the injection of a saline. […]

For `CCOC(=O)C1=C(C)NC(COC(=O)NC)=C(C(=O)OCC)C1c1ccccc1[N+](=O)[O-]` (stereo not drawn) [(6), 2-N--Methylaminocarbonyloxymethyl-6-methyl-4-(2-nitrophenyl)-3,5-diethoxycarbonyl-1,4-dihydropyridine], in data set [1] (Table 1(a)), the EC50 was 0.45 µg/mL (≈ 1.01 µM). Moreover, the LD50 in data set [2] came out at 30 mg/kg.
For `CCOC(=O)C1=C(C)NC(COC(=O)NC2CCCCC2)=C(C(=O)OCCOC)C1c1cccc([N+](=O)[O-])c1` (stereo not drawn) [(14), 2-N--Cyclohexylaminocarbonyloxymethyl-6-methyl-5-ethoxycarbonyl-3-(β-methoxyethoxy)carbonyl-1,4-dihydropyridine], the EC50 in data set [1] (Table 1(b)) was found to be 0.35 µg/mL (≈ 0.642 µM). In addition, the LD50 in data set [2] amounted to 88 mg/kg.
The corresponding values for `CCCOCCOC(=O)C1=C(COC(N)=O)NC(C)=C(C(=O)OCC)C1c1cccc([N+](=O)[O-])c1` (stereo not drawn) [(11), 2-Aminocarbonyloxymethyl-6-methyl-4-(3-nitrophenyl)-5-ethoxycarbonyl-3-(β-propoxyethoxy)carbonyl-1,4-dihydropyridine] are 0.25 µg/mL (≈ 0.509 µM) and 123 mg/kg.
The corresponding values for `COCCOC(=O)C1=C(C)NC(COC(N)=O)=C(C(=O)OCCOC)C1c1ccccc1Cl` (stereo not drawn) [(20), 2-Aminocarbonyloxymethyl-6-methyl-4-(2-chlorophenyl)-3,5-bis[(β-methoxyethoxy)carbonyl]-1,4-dihydropyridine] are 0.36 µg/mL (≈ 0.745 µM) and 184 mg/kg.
With `COC(=O)C1=C(C)NC(C)=C(C(=O)OC)C1c1ccccc1[N+](=O)[O-]` [nifedipine, 2,6-Dimethyl-4-(2-nitrophenyl)-3,5-dimethoxycarbonyl-1,4-dihydropyridine], the results for the EC50 in data set [1] (Table 1(a)) and in data set [1] (Table 1(b)) were 0.29 µg/mL (≈ 0.837 µM) and 0.22 µg/mL (≈ 0.635 µM), respectively. Further, the figures for the “BP (systemic blood pressure) % decrease” value in the data set on Beagle dogs (1 μg/kg i.v.), in the data set with Beagle dogs (3 μg/kg i.v.) and in the data set on Beagle dogs (10 μg/kg i.v.) were 2%, 10% and 18%, respectively. Moreover, the results for the “CF (coronary blood flow) % increase” value in the data set on Beagle dogs (1 μg/kg i.v.), in the data set on Beagle dogs (3 μg/kg i.v.) and in the data set on Beagle dogs (10 μg/kg i.v.) were 10%, 48% and 86%, respectively. The “FAF (femoral artery blood flow) % increase” value is reported as -3% in the data set with Beagle dogs (1 μg/kg i.v.), -4% with Beagle dogs (3 μg/kg i.v.) and 10% in the data set on Beagle dogs (10 μg/kg i.v.). In addition, the entries for the “HR (heart rate) % increase” value in the data set on Beagle dogs (1 μg/kg i.v.), in the data set with Beagle dogs (3 μg/kg i.v.) and in the data set with Beagle dogs (10 μg/kg i.v.) were 0.6%, 2% and 4%, respectively.
With `CCOC(=O)C1=C(COC(=O)NC)NC(C)=C(C(=O)OC(C)C)C1c1cccc([N+](=O)[O-])c1` (stereo not drawn) [(8), 2-N--Methylaminocarbonyloxymethyl-6-methyl-4-(3-nitrophenyl)-3-ethoxycarbonyl-5-isopropoxycarbonyl-1,4-dihydropyridine], in data set [1] (Table 1(a)), the EC50 stood at 0.23 µg/mL (≈ 0.498 µM). For the same compound, in data set [2], the LD50 came to 37 mg/kg.
Turning to `CNC(=O)OCC1=C(C(=O)OC)C(c2cccc([N+](=O)[O-])c2)C(C(=O)OCCN(C)Cc2ccccc2)=C(C)N1` (stereo not drawn) [(16), 2-N--Methylaminocarbonyloxymethyl-6-methyl-4-(3-nitrophenyl)-3-methoxycarbonyl-5-(β-N--methylbenzylaminoethoxy)carbonyl-1,4-dihydropyridine], the EC50 in data set [1] (Table 1(b)) is 0.25 µg/mL (≈ 0.452 µM). The LD50 in data set [2] worked out at 146 mg/kg.
On to `CCOC(=O)C1=C(COC(=O)Nc2ccc(Cl)cc2)NC(C)=C(C(=O)OC(C)C)C1c1cccc([N+](=O)[O-])c1` (stereo not drawn) [(21), 2-(4-chlorophenyl)aminocarbonyloxymethyl-6-methyl-4-(3-nitrophenyl)-3-ethoxycarbonyl-5-isopropoxycarbonyl-1,4-dihydropyridine], for which the EC50 in data set [1] (Table 1(b)) is 0.28 µg/mL (≈ 0.502 µM). In data set [2], the 50% lethal dose (LD50) was determined as 83 mg/kg.
In the case of `COC(=O)C1=C(C)NC(COC(N)=O)=C(C(=O)OC)C1c1cccc([N+](=O)[O-])c1` (stereo not drawn) [(3), 2-Aminocarbonyloxymethyl-6-methyl-4-(3-nitrophenyl)-3,5-dimethoxycarbonyl-1,4-dihydropyridine], the EC50 in data set [1] (Table 1(a)) was determined as 0.36 µg/mL (≈ 0.888 µM). This compound yielded a 50% lethal dose (LD50) in data set [2] of 167 mg/kg.
Turning to `CCCOCCOC(=O)C1=C(C)NC(COC(N)=O)=C(C(=O)OCC)C1c1cccc([N+](=O)[O-])c1` (stereo not drawn) [(9), 2-Aminocarbonyloxymethyl-6-methyl-4-(3-nitrophenyl)-3-ethoxycarbonyl-5-(β-propoxyethoxy)carbonyl-1,4-dihydropyridine], the EC50 in data set [1] (Table 1(b)) stood at 0.34 µg/mL (≈ 0.692 µM). The same compound yielded an LD50 in data set [2] of 136 mg/kg.
The corresponding values for `COC(=O)C1=C(COC(N)=O)NC(C)=C(C(=O)OCCN2CCN(C)CC2)C1c1cccc([N+](=O)[O-])c1` (stereo not drawn) [(17), 2-Aminocarbonyloxymethyl-6-methyl-4-(3-nitrophenyl)-3-methoxycarbonyl-5-[β-(4-methyl-1-piperazinyl)ethoxycarbonyl]-1,4-dihydropyridine] are 2 µg/mL (≈ 3.86 µM) and 68 mg/kg.
Take `CCOC(=O)C1=C(COC(=O)Nc2ccccc2)NC(C)=C(C(=O)OC(C)C)C1c1cccc([N+](=O)[O-])c1` (stereo not drawn) [(22), 2-N--Phenylaminocarbonyloxymethyl-6-methyl-4-(3-nitrophenyl)-3-ethoxycarbonyl-5-isopropoxycarbonyl-1,4-dihydropyridine]: in data set [1] (Table 1(b)), the EC50 was 0.33 µg/mL (≈ 0.63 µM). The LD50 in data set [2] turned out to be 80 mg/kg.
The corresponding values for `CCCOCCOC(=O)C1=C(C)NC(COC(N)=O)=C(C(=O)OCC)C1c1ccccc1[N+](=O)[O-]` (stereo not drawn) [(10), 2-Aminocarbonyloxymethyl-6-methyl-4-(2-nitrophenyl)-3-ethoxycarbonyl-5-(β-propoxyethoxy)carbonyl-1,4-dihydropyridine] are 0.3 µg/mL (≈ 0.61 µM) and 84 mg/kg.
The corresponding values for `CCCOCCOC(=O)C1=C(COC(N)=O)NC(C)=C(C(=O)OCCN(C)Cc2ccccc2)C1c1cccc([N+](=O)[O-])c1` (stereo not drawn) [(19), 2-Aminocarbonyloxymethyl-6-methyl-4-(3-nitrophenyl)-3-(β-propoxyethoxy)carbonyl-5-(β-N--methylbenzylaminoethoxy)carbonyl-1,4-dihydropyridine] are 0.18 µg/mL (≈ 0.295 µM) and 168 mg/kg.
The corresponding values for `COC(=O)C1=C(COC(N)=O)NC(C)=C(C(=O)OCCN(C)Cc2ccccc2)C1c1cccc([N+](=O)[O-])c1` (stereo not drawn) [(15), 2-Aminocarbonyloxymethyl-6-methyl-4-(3-nitrophenyl)-3-methoxycarbonyl-5-(β-N--methylbenzylaminoethoxy)carbonyl-1,4-dihydropyridine] are 0.4 µg/mL (≈ 0.743 µM) and over 200 mg/kg.
As to `CCCOCCOC(=O)C1=C(C)NC(COC(N)=O)=C(C(=O)OCCOCCC)C1c1cccc([N+](=O)[O-])c1` (stereo not drawn) [(12), 2-Aminocarbonyloxymethyl-6-methyl-4-(3-nitrophenyl)-3,5-bis[(β-propoxyethoxy)carbonyl]-1,4-dihydropyridine], the EC50 in data set [1] (Table 1(b)) came to 0.15 µg/mL (≈ 0.273 µM). Besides, the LD50 in data set [2] was determined as 123 mg/kg.
As for `CCOC(=O)C1=C(C)NC(COC(N)=O)=C(C(=O)OCC)C1c1ccccc1[N+](=O)[O-]` (stereo not drawn) [(5), 2-Aminocarbonyloxymethyl-6-methyl-4-(2-nitrophenyl)-3,5-diethoxycarbonyl-1,4-dihydropyridine], in data set [1] (Table 1(a)), the EC50 stood at 0.48 µg/mL (≈ 1.11 µM). In data set [2], this compound gave an LD50 of 104 mg/kg.
`CCOC(=O)C1=C(COC(N)=O)NC(C)=C(C(=O)OC(C)C)C1c1cccc([N+](=O)[O-])c1` (stereo not drawn) [(7), 2-Aminocarbonyloxymethyl-6-methyl-4-(3-nitrophenyl)-3-ethoxycarbonyl-5-isopropoxycarbonyl-1,4-dihydropyridine]: the EC50 in data set [1] (Table 1(a)) amounted to 0.24 µg/mL (≈ 0.536 µM). Besides, the LD50 in data set [2] amounted to 76 mg/kg.
`COC(=O)C1=C(COC(N)=O)NC(C)=C(C(=O)OCCN2CCOCC2)C1c1cccc([N+](=O)[O-])c1` (stereo not drawn) [(18), 2-Aminocarbonyloxymethyl-6-methyl-4-(3-nitrophenyl)-3-methoxycarbonyl-5-(β-morpholinoethoxy)carbonyl-1,4-dihydropyridine]: the EC50 in data set [1] (Table 1(b)) came to 1.5 µg/mL (≈ 2.97 µM). The same compound gave an LD50 in data set [2] of over 200 mg/kg.
Turning to `CCOC(=O)C1=C(C)NC(COC(N)=O)=C(C(=O)OCC)C1c1cccc([N+](=O)[O-])c1` (stereo not drawn) [(1)], the EC50 in data set [1] (Table 1(a)) came out at 0.24 µg/mL (≈ 0.554 µM). The compound also gave an LD50 in data set [2] of 207 mg/kg.
As for `CCCOCCOC(=O)C1=C(C)NC(COC(=O)NC)=C(C(=O)OCCOCCC)C1c1cccc([N+](=O)[O-])c1` (stereo not drawn) [(13), 2-N--Methylaminocarbonyloxymethyl-6-methyl-4-(3-nitrophenyl)-3,5-bis[(β-propoxyethoxy)carbonyl]-1,4-dihydropyridine], the EC50 in data set [1] (Table 1(b)) came to 0.04 µg/mL (≈ 0.071 µM). In data set [2], the LD50 worked out at 104 mg/kg.
